Data set [1] relates to cytokinin-dependent tobacco callus. In words: Tobacco callus biotest (stimulation of plant cell division). The format is cell-based, Nicotiana tabacum L. cv. Wisconsin 38. As to conditions: callus growth at concentration with highest activity; 10^−5 M BAP = 100%.
The next data set has as its system HOS (human osteosarcoma). Briefly: In vitro cytotoxicity, Calcein AM assay, HOS. As to conditions: Homo sapiens, 72 h, 3-day Calcein-AM assay. The format is cell-based. An outline of the steps: (§1)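 Cells (~10,000/well) in DMEM or RPMI with 10% FBS were seeded, given test compounds after 12 h and incubated 72 h at 37 °C, 5% CO2; DMSO alone served as control. Calcein AM was then added at 1 μg/ml final for 1 h, and viability was read as calcein green fluorescence.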

Data set [2] can be described thus: Aqueous solubility: concentration of saturated solution by HPLC. Type of data set: physicochemical. As to conditions: for solubility thermodynamic: thermodynamic from solid. Here is the method: Aqueous solubility was measured using the following protocol. Supersaturated solution of meta-topolin mesylate salt was prepared. The solutions were filtered off from visible undissolved particles of the salt to obtain homogenic saturated solution. Saturated solution was diluted 1:10 000 and measured using HPLC Alliance Waters 2690 with C18 Symmetry column with the diameter 2.1 mm and 150 mm length with a porosity of 5 μm. The sample was dissolved in the mobile phase (MeOH: HCOONH4-1:9). The sample was washed with a methanol gradient (10-90%, 35 min) at pH 4 and a flow rate of 0.3 ml/min. The absorbances of the components were detected in the UV region at 210-400 nm. The peak area of meta-topolin mesylate salt was 595 027. The standard was measured as shown in the Table 9 below, Obtained peak area was compared to area peaks measured at certain concentration and the final concentration of saturated solution was determined
Solubility of other cytokinin (CK) mesylates was also determined by this method and the concentrations of saturated solutions are given below in Table 10: […]

The subject of data set [3] is HL-60 (promyelocytic, leukemia). In words: In vitro cytotoxicity, Calcein AM assay, HL60. The format is cell-based. As to conditions: Homo sapiens, HL-60, 72 h, 3-day Calcein-AM assay. In a few lines: as §1
Data set [4] concerns winter wheat leaf segments. Briefly: Senescence bioassay: retention of chlorophyll in excised winter wheat leaf tips. Type of data set: in vivo, Triticum aestivum cv. Hereward. Particulars: chlorophyll retention at concentration with highest activity; 10^−4 M BAP = 100%. Here is the method: Seeds of winter wheat, Triticum aestivum cv. Hereward, were washed under running water for 24 hours and then sown on vermiculite soaked with Knop's solution. They were placed in a growth chamber at 25° C. with a 16/8 h light/dark period at 50 μmol·m^−2·s^−1. After 7 days, the first leaf was fully developed and the second leaf had started to grow. A tip section of the first leaf, approximately 35 mm long, was removed from 5 seedlings and trimmed slightly to a combined weight of 100 mg. The basal ends of the five leaf tips were placed in the wells of a microtiter polystyrene plate containing 150 μl of each tested compound solution. The entire plate was inserted into a plastic box lined with paper tissues soaked in distilled water to prevent leaf sections from drying out. After 96 h incubation in the dark at 25° C., the leaves were removed and chlorophyll extracted by heating at 80° C. for 10 min in 5 ml of 80% ethanol (v/v). The sample volume was then restored to 5 ml by the addition of 80% ethanol (v/v). The absorbance of the extract was recorded at 665 nm. In addition, chlorophyll extracts from fresh leaves and leaf tips incubated in deionised water were measured. […] Relative activity of the compound at this concentration was calculated (Tab. 3). The activity obtained for 10^−4 M 6-benzylaminopurine (BAP) was postulated as 100%. The values shown are means of five replicates and the whole experiment was repeated twice. The tested cytokinin bases were dissolved in dimethylsulfoxide (DMSO) and the solution brought up to 10^−3 M with distilled water. Cytokinin mesylate salts which are more water-soluble (BAP mesylate, meta-topolin mesylate and kinetin mesylate) could be directly dissolved to form a 10^−3 M solution in distilled water.

The test system of data set [5] is K562 (chronic myeloid leukemia). Briefly: In vitro cytotoxicity, Calcein AM assay, K-562. As to conditions: 3-day Calcein-AM assay. The format is cell-based. In a few lines:
as §1

In the next data set the test system is keratinocytes HaCaT. Briefly: Cytotoxicity for non-cancer cells, resazurine reduction assay, HaCaT. Here is the method: It is used for viability testing of both bacterial and eukaryotic cells. […] Cultivation medium was DMEM with 10% FBS. Before the experiment, the cells were subcultured for 2 weeks. For the cytotoxicity evaluation, the cells were trypsinized and pipetted into 96 well plates (5000 cells per well in 80 microliters). After 24 hours, 5× concentrated solutions of the tested compounds in the medium were added. […] IC50 values were calculated from dose response curves using drc library for R programming environment.
In general terms: Resazurin is reduced to fluorescent resorufin, in cell work by metabolically active cells.

Where [6] appears, read: saturated solution in water, free cytokinin base, read-out: c of free CK base.
Setting [7] is: saturated solution in water, cytokinin mesylate, read-out: c of CK mesylate.
[8] abbreviates: resazurin, 72 hour treatment, HaCaT.

Results on six compounds are retold here after patent US12570657B2, “Mesylate salts of heterocyclic cytokinins, compositions containing these derivatives and use thereof” (UNIVERZITA PALACKEHO V OLOMOUCI, priority 2020, dated 2026).

Structures are written as SMILES. Read-outs that look alike come from different tables or passages of the source.

Broadly, the IC50 is the concentration at which inhibition is half-maximal. Turning to `COc1cccc(CNc2ncnc3nc[nH]c23)c1` [3MeOBAP, 6-(3-methoxybenzylamino)purine], in data set [1], the “activity (%) [10^−5 mol · l^−1 BAP = 100%]” value is 76%. For the same compound, the IC50 with HOS (human osteosarcoma) is > 167 µM; in data set [3] it was > 167 µM; in data set [5] (Homo sapiens, K562, 72 h), > 167 µM. Besides, in data set [2] (setting [6]), the solubility thermodynamic was 210 µM. For the same compound, the “activity (%) [10^−4 mol · l^−1 BAP = 100%]” value in data set [4] worked out at 101%.

For the compound `CS(=O)(=O)O.c1ccc(CNc2ncnc3nc[nH]c23)cc1` [BAP mesylate, 6-benzylaminopurine mesylate], in data set [1], the “activity (%) [10^−5 mol · l^−1 BAP = 100%]” value is 104%. Besides, the solubility thermodynamic in data set [2] (setting [7]) was found to be 354000 µM. The “activity (%) [10^−4 mol · l^−1 BAP = 100%]” value in data set [4] is 108%. The IC50 in data set [5] (mesylate) is > 167 µM. The “Cytotoxicity for Fibroblasts (GI20) HaCaT” value (“Cytotoxicity for Fibroblasts” below) with keratinocytes HaCaT (setting [8]) is >100 µM.

As to `c1ccc(CNc2ncnc3nc[nH]c23)cc1` [BAP, 6-benzylaminopurine], the “activity (%) [10^−5 mol · l^−1 BAP = 100%]” value in data set [1] is reported as 100%. Besides, the IC50 was > 167 µM with HOS (human osteosarcoma); > 167 µM in data set [3]; 139 µM in data set [5] (Homo sapiens, K562, 72 h). This compound also gave a solubility thermodynamic in data set [2] (water) of 370 µM. For the same compound, the “activity (%) [10^−4 mol · l^−1 BAP = 100%]” value in data set [4] is on record as 100%. Besides, in the data set with keratinocytes HaCaT (human, 72 h), the “Cytotoxicity for Fibroblasts” value is >100 µM.

Take `CS(=O)(=O)O.Oc1cccc(CNc2ncnc3nc[nH]c23)c1` [mT mesylate, 6-(3-hydroxybenzylamino)purine mesylate]: the “activity (%) [10^−5 mol · l^−1 BAP = 100%]” value in data set [1] amounted to 111%. For the same compound, in data set [2] (saturated solution in water, cytokinin mesylate), the “c of CK mesylate” value was 24,011 mM. For the same compound, the solubility thermodynamic in data set [2] (setting [7]) was found to be 24000 µM; in data set [2] (water, read-out: concentration of saturated solution), 8000 µg/mL. The “concentration of saturated solution” value in data set [2] (water) was “approximately 24010,81 μM”. Also, the “activity (%) [10^−4 mol · l^−1 BAP = 100%]” value in data set [4] amounted to 109%. The IC50 in data set [5] (mesylate) is 142 µM. In the data set with keratinocytes HaCaT (setting [8]), the “Cytotoxicity for Fibroblasts” value is >100 µM.

As for `Oc1cccc(CNc2ncnc3nc[nH]c23)c1` [meta-topolin (mT), 6-(3-hydroxybenzylamino)purine], the “activity (%) [10^−5 mol · l^−1 BAP = 100%]” value in data set [1] was 105%. For the same compound, the IC50 in the data set on HOS (human osteosarcoma) was > 167 µM; in data set [3] it was 79.2 µM; in data set [5] (Homo sapiens, K562, 72 h), 128 µM. Besides, the solubility thermodynamic in data set [2] (setting [6]) was determined as 60 µM. The “concentration of saturated solution” value in data set [2] (water) amounted to 60 µg/mL. The “activity (%) [10^−4 mol · l^−1 BAP = 100%]” value in data set [4] came out at 117%. Besides, in the data set on keratinocytes HaCaT (setting [8]), the “Cytotoxicity for Fibroblasts” value was >100 µM.

On to `Oc1ccccc1CNc1ncnc2nc[nH]c12` [ortho-topolin (oT), 6-(2-hydroxybenzylamino)purine], for which the “activity (%) [10^−5 mol · l^−1 BAP = 100%]” value in data set [1] worked out at 86%. Moreover, the IC50 with HOS (human osteosarcoma) was > 167 µM; in data set [3], 78 µM; in data set [5] (Homo sapiens, K562, 72 h), > 167 µM. Besides, the solubility thermodynamic in data set [2] (setting [6]) stood at 30 µM. Also, the “activity (%) [10^−4 mol · l^−1 BAP = 100%]” value in data set [4] is reported as 67%. Besides, the “Cytotoxicity for Fibroblasts” value with keratinocytes HaCaT (setting [8]) was >100 µM.
